This is an account of results in PubChem BioAssay (NCI).

Among the test systems are NCI-H460 lung; UO-31 renal; SNB-75 CNS; SW-620 colon; PC-3 prostate; RXF 393 renal; BT-549 breast; LOX IMVI melanoma; 786-0 renal; SNB-19 CNS.
Common to all, as to experiment: DTP human tumour cell line panel, 48 h

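Where inhibition never reached the appropriate level, the endpoint shown equals the highest concentration tested. Otherwise, values were interpolated linearly from a five-concentration, 48-hour dose response in 96-well plates. TGI: concentration producing complete growth inhibition.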

What is called TGI is the concentration at which net growth stops. A low value points to more potent growth arrest. As to `N#Cc1nc(C2CCC(=O)O2)oc1N` (stereo not given), the TGI in the experiment on NCI-H460 lung, with UO-31 renal, with SNB-75 CNS, with SW-620 colon, in the experiment on PC-3 prostate and with RXF 393 renal was above 100 µM each time. For the same compound, the TGI with BT-549 breast, with LOX IMVI melanoma, in the experiment on 786-0 renal and in the experiment with SNB-19 CNS was above 100 µM throughout.

In the case of `Nc1nncc2[nH]cnc12`, the TGI in the experiment on NCI-H460 lung, in the experiment with UO-31 renal, in the experiment with SNB-75 CNS, in the experiment on SW-620 colon, in the experiment with PC-3 prostate and with RXF 393 renal was above 100 µM in each case. In addition, the TGI was 77.4 µM in the experiment with BT-549 breast, above 100 µM in the experiment on LOX IMVI melanoma, above 100 µM with 786-0 renal and above 100 µM in the experiment on SNB-19 CNS.

Take `COc1cccc(N2C(=O)CS(=O)(=O)C2c2cccc(Oc3ccccc3)c2)c1` (stereo not given): the concentration for total growth inhibition (TGI) with NCI-H460 lung is 31.1 µM; in the experiment with UO-31 renal it was above 100 µM; with SNB-75 CNS, 84.5 µM; with SW-620 colon, above 100 µM; in the experiment on PC-3 prostate, 85.8 µM; in the experiment with RXF 393 renal, 71.1 µM. Besides, the TGI in the experiment with BT-549 breast was 61.4 µM; in the experiment with LOX IMVI melanoma, 51.1 µM; with 786-0 renal, 44.4 µM; with SNB-19 CNS, above 100 µM.

With `S=c1[nH]nc(Cn2c3ccc(Br)cc3c3nc4ccccc4nc32)n1C1CCCCC1`, the TGI with NCI-H460 lung was above 100 µM; with UO-31 renal it was above 76.2 µM; in the experiment with SNB-75 CNS, above 100 µM; with SW-620 colon, above 100 µM; in the experiment with PC-3 prostate, above 66.9 µM; with RXF 393 renal, 70.1 µM. Further, the TGI is above 83 µM with BT-549 breast, 23 µM in the experiment with LOX IMVI melanoma, 54.8 µM with 786-0 renal and above 96.7 µM in the experiment on SNB-19 CNS.

Turning to `COc1cc(OC)cc(Oc2nc3cc(F)c(F)cc3nc2-c2ccccc2)c1`, the concentration for total growth inhibition (TGI) in the experiment on NCI-H460 lung, in the experiment with UO-31 renal, with SNB-75 CNS, in the experiment on SW-620 colon, in the experiment on PC-3 prostate and in the experiment on RXF 393 renal was above 100 µM in each case. Further, the TGI with BT-549 breast, in the experiment with LOX IMVI melanoma, with 786-0 renal and with SNB-19 CNS was above 100 µM each time.

Take `CN(C)CCNc1c([N+](=O)[O-])sc2ccc(Cl)cc12`: the TGI was above 100 µM in the experiment on NCI-H460 lung; above 100 µM with UO-31 renal; 43 µM with SNB-75 CNS; above 100 µM with SW-620 colon; above 100 µM in the experiment on PC-3 prostate; 82.8 µM in the experiment with RXF 393 renal. Further, the TGI in the experiment with BT-549 breast is above 100 µM; with LOX IMVI melanoma, above 100 µM; in the experiment with 786-0 renal, 49.1 µM; with SNB-19 CNS it was above 100 µM.

For the compound `C[N+]1(CCN=C=NC2CCCCC2)CCOCC1`, the TGI with NCI-H460 lung, in the experiment on UO-31 renal, with SNB-75 CNS, in the experiment with SW-620 colon, in the experiment on PC-3 prostate and in the experiment on RXF 393 renal was above 100 µM in each case. The concentration for total growth inhibition (TGI) in the experiment with BT-549 breast, in the experiment with LOX IMVI melanoma, with 786-0 renal and in the experiment on SNB-19 CNS was above 100 µM in each case.

For `CC1(C)N=C(N)N=C(N)N1c1cccc(OCc2cccc(N)c2)c1`, the concentration for total growth inhibition (TGI) in the experiment with NCI-H460 lung, in the experiment on UO-31 renal, with SNB-75 CNS, with SW-620 colon, in the experiment on PC-3 prostate and in the experiment on RXF 393 renal was above 100 µM each time. The TGI with BT-549 breast, with LOX IMVI melanoma, in the experiment on 786-0 renal and in the experiment with SNB-19 CNS was above 100 µM throughout.

As to `COc1cc2[nH]c(=O)c3cc(-c4ccccc4)cc4c(Cl)nc(c1OC)c2c43`, the total growth inhibition concentration (TGI) in the experiment with NCI-H460 lung was above 82.9 µM; in the experiment with UO-31 renal it was above 65.1 µM; in the experiment with SNB-75 CNS, above 60.3 µM; in the experiment on SW-620 colon, above 66.1 µM; in the experiment with PC-3 prostate it was above 100 µM; with RXF 393 renal it was above 55.7 µM. Also, the TGI in the experiment on BT-549 breast was above 67 µM; in the experiment on LOX IMVI melanoma, above 73.6 µM; in the experiment on 786-0 renal, above 49.2 µM; with SNB-19 CNS it was above 82.8 µM.

On to `O=C(OC12CC3CC(CC(C3)C1)C2)c1ccc(NCc2cc(O)ccc2O)cc1`, for which the concentration for total growth inhibition (TGI) came to 16.6 µM in the experiment with NCI-H460 lung; 2.06 µM with UO-31 renal; 2.68 µM in the experiment with SNB-75 CNS; 4.92 µM in the experiment with SW-620 colon; 3.37 µM in the experiment on PC-3 prostate; 1.02 µM with RXF 393 renal. The TGI in the experiment with BT-549 breast was 1.71 µM; in the experiment on LOX IMVI melanoma, 8.94 µM; with 786-0 renal, 2.86 µM; in the experiment on SNB-19 CNS, 11.7 µM.

For `CCC(=O)Nc1ccc(NS(=O)(=O)c2ccc(Cl)cc2)cc1`, the total growth inhibition concentration (TGI) with NCI-H460 lung, with UO-31 renal, in the experiment on SNB-75 CNS, with SW-620 colon, in the experiment with PC-3 prostate and in the experiment with RXF 393 renal was above 100 µM in each case. The TGI with BT-549 breast, in the experiment with LOX IMVI melanoma, in the experiment on 786-0 renal and with SNB-19 CNS was above 100 µM throughout.

In the case of `Nc1c(S(N)(=O)=O)cc(S(N)(=O)=O)cc1S(N)(=O)=O`, the TGI in the experiment with NCI-H460 lung, in the experiment with UO-31 renal, in the experiment with SNB-75 CNS, with SW-620 colon, in the experiment on PC-3 prostate and in the experiment on RXF 393 renal was above 100 µM throughout. Further, the TGI in the experiment on BT-549 breast, in the experiment on LOX IMVI melanoma, in the experiment on 786-0 renal and in the experiment on SNB-19 CNS was above 100 µM throughout.

Take `Cc1cn(CCCCCOC(=O)NC(CCCNC(N)=O)C(=O)O)c(=O)[nH]c1=O` (stereo not given): the TGI in the experiment on NCI-H460 lung, with UO-31 renal, with SNB-75 CNS, in the experiment with SW-620 colon, in the experiment with PC-3 prostate and with RXF 393 renal was above 100 µM each time. In addition, the TGI in the experiment on BT-549 breast, with LOX IMVI melanoma, with 786-0 renal and in the experiment on SNB-19 CNS was above 100 µM each time.
